The values that follow come from patent US20090023762A1, “Substituted 2-Aminopyrimidine-4-Ones, Their Pharmaceutical Compositions And Their Use In The Treatment And/Or Prevention Of Ab-Related Pathologies” (ASTRAZENECA AB, priority 2005, published 2009).

In the test the target is T1, human β-Secretase (Homo sapiens, UniProt P56817).
T1 construct: The soluble part of the human β-Secretase (AA 1-AA 460) was cloned; Fc domain of IgG1 (C); made in house
Description: TR-FRET assay. The test is classed as biochemical. Particulars: substrate (Europium)CEVNLDAEFK(Qsy7) 100 nM, enzyme 0.3 nM, pH 4.5. The method, then: The enzyme used in the IGEN Cleavage-, Fluorescent-, TR-FRET- and the BiaCore assay is described as follows:
The soluble part of the human β-Secretase (AA 1-AA 460) was cloned into the ASP2-Fc10-1-IRES-GFP-neoK mammalian expression vector. The gene was fused to the Fc domain of IgG1 (affinity tag) and stably cloned into HEK 293 cells. Purified sBACE-Fc is stored in Tris buffer, pH 9.2 and has a purity of 95%.
Dilute the enzyme (truncated form) to 6 μg/mL (stock 1.3 mg/mL) and the substrate (Europium)CEVNLDAEFK (Qsy7) to 200 nM (stock 60 μM) in reaction buffer (NaAcetate, chaps, triton x-100, EDTA pH4.5). The Biomek FX is used for all liquid handling and the enzyme and substrate solutions are kept on ice until they are placed in Biomek FX. Enzyme (9 μl) is added to the plate then […] in dimethylsulphoxide is added, mixed and pre-incubated for 10 minutes. Substrate (10 μl) is then added, mixed and the reaction proceeds in the dark for 15 minutes at room temperature. The reaction is stopped with the addition of Stop solution (7 μl, NaAcetate pH 9). The fluorescence of the product is measured on a Victor II plate reader with an excitation wavelength of 340 nm and an emission wavelength of 615 nm. The assay is done in a Costar 384 well round bottom, low volume, non-binding surface (Corning #3676). […]
(Time-resolved FRET reads energy transfer from a long-lived donor to a nearby acceptor.)

T1 sequence (P56817 22-460): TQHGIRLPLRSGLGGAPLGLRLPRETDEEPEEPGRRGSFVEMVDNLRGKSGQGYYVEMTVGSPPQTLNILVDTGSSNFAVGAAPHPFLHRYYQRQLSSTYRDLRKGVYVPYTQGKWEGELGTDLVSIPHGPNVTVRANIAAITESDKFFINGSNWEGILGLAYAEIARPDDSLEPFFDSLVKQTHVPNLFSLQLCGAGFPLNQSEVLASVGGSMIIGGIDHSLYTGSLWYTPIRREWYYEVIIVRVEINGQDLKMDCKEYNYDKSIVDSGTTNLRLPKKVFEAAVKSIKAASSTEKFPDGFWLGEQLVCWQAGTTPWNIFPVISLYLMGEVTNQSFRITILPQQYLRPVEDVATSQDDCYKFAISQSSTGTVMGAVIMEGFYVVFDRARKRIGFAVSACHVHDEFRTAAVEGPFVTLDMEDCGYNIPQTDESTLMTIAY

For the compound `COc1cc(OS(C)(=O)=O)cc(-c2cccc(C3(C)CC(=O)N(C)C(N)=N3)c2)c1` (stereo not shown) [Example 9, 3′-(2-Amino-1,4-dimethyl-6-oxo-1,4,5,6-tetrahydropyrimidin-4-yl)-5-methoxybiphenyl-3-yl methanesulfonate], inhibition was half-maximal at 703 nM (IC50).
